Experimental data taken from patent US9889183B2, “PKC activators and anticoagulant in regimen for treating stroke” (BLANCHETTE ROCKEFELLER NEUROSCIENCES INSTITUTE, priority 2010, dated 2018).

Assays:
[1] = system: Endothelin-converting enzyme (ECE); experiment: ECE assay in neuroblastoma cells; assay type: cell-based, human; conditions: bryostatin 0.27 nM, BR-101 1 μM, BR-111 1 μM; FIG. 14
Procedure: ECE assay. […] neuroblastoma cells were incubated with bryostatin (0.27 nM), BR-101 (DCP-LA) (1 μM), and BR-111 (DHA-CP6) (1 μM). Endothelin-converting enzyme (ECE) was measured fluorimetrically using the method of Johnson and Ahn (Anal. Biochem. (2000), vol. 286, pp. 112-118). A sample of cell homogenate (20 μl) was incubated in 50 mM MES-KOH, pH 6.0, 0.01% C12E10 (polyoxyethylene-10-lauryl ether), and 15 μM McaBK2 (7-Methoxycoumarin-4-acetyl [Ala7-(2,4-Dinitrophenyl)Lys9]-bradykinin trifluoroacetate salt) (Sigma-Aldrich). After 60 min at 37° C., the reaction was quenched by adding trifluoroacetic acid to 0.5%. The sample was diluted to 1.4 ml with water and the fluorescence was measured at ex=334 nm, em=398 nm.

[2] = system: SH-SY5Y neuroblastoma cells; experiment: Cell survival and proliferation (alamar Blue, CyQuant); assay type: cell-based, human
Procedure: (§1) Aβ Measurement and Cell Viability Assay. Aβ was measured using an Aβ 1-42 human fluorimetric ELISA kit (Invitrogen) according to the manufacturer's instructions. Results were measured in a Biotek Synergy HT microplate reader. AlamarBlue and CyQuant NF (Invitrogen) according to the manufacturer's instructions.

[3] = system: Aβ in neuro2a (N2a) neuroblastoma cells; experiment: Aβ production in N2a cells transfected with human APPSwe/PS1D (ELISA); assay type: cell-based, mouse; conditions: for levels of intracellular Aβ / levels of secreted Aβ: various concentrations; for levels of intracellular Aβ: FIG. 11a; for levels of secreted Aβ: FIG. 11b; for concentration dependence of Aβ inhibition: up to 10 μM to 100 μM, no evidence of downregulation
Procedure: Cell culture. Rat hippocampal H19-7/IGF-IR cells (ATCC, Manassas, Va.) were plated onto poly-L-lysine coated plates and grown at 35° C. in DMEM/10% FCS for several days until about 50% coverage was obtained. The cells were then induced to differentiate into a neuronal phenotype by replacing the medium with 5 ml N2 medium containing 10 ng/ml basic fibroblast growth factor at 39° C. and grown in T-75 flasks at 37° C. Human SH-SY5Y neuroblastoma cells (ATCC) were cultured in 45% F12K/45% MEM/10% FCS. Mouse N2A neuroblastoma cells were cultured in DMEM/10% FCS without glutamine. Rat hippocampal neurons from 18-day-old embryonic Sprague Dawley rat brains were plated on 12- or 96-well plates coated with poly-D-lysine (Sigma-Aldrich, St. Louis, Mo.) in B-27 neurobasal medium containing 0.5 mM glutamine and 25 μM glutamate (Invitrogen, Carlsbad, Calif.) and cultured for three days in the medium without glutamate. The neuronal cells were grown under 5% CO2 in an incubator maintained at 37° C. for 14 days.
as §1
To measure the effects of PKCε activation on Aβ production, mouse neuro2a (N2a) neuroblastoma cells transfected with human APPSwe/PSID were used, which produce large quantities of Aβ. Petanceska et al., J Neurochem. (1996), vol. 74, pp. 1878-1884. […] With bryostatin, which activates PKC by binding to the diacylglycerol-binding site, the inhibition was biphasic with concentrations of 20 nM or higher producing no net effect. This may be explained by the ability of this class of PKC activators to downregulate PKC when used at high concentrations.

[4] = system: TACE in N2a neuroblastoma cells; experiment: TACE assay, N2a cells; assay type: cell-based; conditions: N2a mouse neuroblastoma cells, FIG. 13a
Procedure: FIGS. 13a, 13b and 13c show effects of (FIG. 13a) bryostatin, BR-101 (DCP-LA) and BR-111 (DHA-CP6) on TACE activity in N2a neuroblastoma cells transfected with human APPSwe/PS1D; (FIG. 13b) various concentrations of bryostatin on TACE activity in rat cortical primary neurons; and (FIG. 13c) BR-111 (DHA-CP6) on TACE activity in rat cortical primary neurons.
TACE Assay. TACE was measured by incubating 5 μl cell homogenate, 3 μl buffer (50 mM Tris-HCl 7.4 plus 25 mM NaCl plus 4% glycerol), and 1 μl of 100 μM TACE substrate (Aβz-[…]-DPa) (Calbiochem) for 20 min at 37° C. 1.5-ml polypropylene centrifuge tubes. Jin et al., Anal. Biochem. (2002), vol. 302, pp. 269-275. The reaction was stopped by cooling to 4° C. The samples were diluted to 1 ml and the fluorescence was rapidly measured (ex=320 nm, em=420 nm) in a Spex Fluorolog 2 spectrofluorometer.
Buxbaum et al., J Biol. Chem. (1998), vol. 273, pp. 27765-27767; Etcheberrigaray et al., Proc. Natl. Acad. Sci. USA (2006), vol. 103, pp. 8215-8220. However, many of these earlier studies were carried out in fibroblasts and other non-neuronal cell types, which appear to respond differently to PKC activators than neurons.

**Q.** With `CCCCCC1CC1CC1CC1CCCCCCCC(=O)O` (stereo not drawn) [BR-101, 2-[(2-pentylcyclopropyl)methyl]cyclopropaneoctanoic acid] as the compound, how does the ECE activity [1] read?
**A.** Its ECE activity is “sustained increase”.

**Q.** What about the “effect on cell survival (alamar Blue)” value [2] of the same compound?
**A.** Its value is “no effect”.

**Q.** And the “effect on proliferation (CyQuant)” value [2]?
**A.** Its value is “no effect”.

**Q.** What about the “levels of intracellular Aβ” value ([3]; 24 hours) of the same compound?
**A.** The value was “markedly reduced”.

**Q.** What about the “levels of secreted Aβ” value ([3]; 24 hours) of the same compound?
**A.** The value was “markedly reduced”.

**Q.** And the “concentration dependence of Aβ inhibition” value [3]?
**A.** Its value is “monotonically increasing inhibition”.

**Q.** What about the TACE activity [4] of the same compound?
**A.** Its TACE activity is “small increases”.

**Q.** How did the ECE activity [1] turn out when `CCC1CC1CC1CC1CC1CC1CC1CC1CC1CC1CC1CC1CCC(=O)OC` (stereo not drawn) [BR-111, methyl-3-(2-((2-((2-((2-((2-((2-ethylcyclopropyl)methyl)cyclopropyl)methyl)cyclopropyl)methyl)-cyclopropyl)methyl)cyclopropyl)methyl)cyclopropyl)propanoate] was run?
**A.** Its ECE activity is “sustained increase”.

**Q.** What about the “effect on cell survival (alamar Blue)” value [2] of the same compound?
**A.** Its value is “no effect”.

**Q.** What about the “effect on proliferation (CyQuant)” value [2] of the same compound?
**A.** Its value is “no effect”.

**Q.** And the “levels of intracellular Aβ” value ([3]; 24 hours)?
**A.** The value was “markedly reduced”.

**Q.** What about the “levels of secreted Aβ” value ([3]; 24 hours) of the same compound?
**A.** Its value is “markedly reduced”.

**Q.** What about the “concentration dependence of Aβ inhibition” value [3] of the same compound?
**A.** The value was “monotonically increasing inhibition”.

**Q.** What about the TACE activity [4] of the same compound?
**A.** Its TACE activity is “small increases”.

**Q.** Which results are given for `CCC/C=C/C=C/C(=O)O[C@H]1/C(=C/C(=O)OC)C[C@H]2C[C@H]([C@@H](C)O)OC(=O)C[C@H](O)C[C@@H]3C[C@H](OC(C)=O)C(C)(C)[C@](O)(C[C@@H]4C/C(=C/C(=O)OC)C[C@H](/C=C/C(C)(C)[C@]1(O)O2)O4)O3` [Bryostatin-1, bryostatin-1]?
**A.** ECE activity [1]: sustained increase; effect on cell survival (alamar Blue) [2]: no effect; effect on proliferation (CyQuant) [2]: no effect; concentrations producing no net effect on Aβ (biphasic inhibition) ([3]; 24 hours): ≥ 20 nM; levels of intracellular Aβ ([3]; 24 hours): markedly reduced; levels of secreted Aβ ([3]; 24 hours): markedly reduced; TACE activity [4]: small increases
